From ChEMBL document CHEMBL3813635, “Development of new Malt1 inhibitors and probes” (Bioorg Med Chem, 2016) come the findings set out here.

Calls of active or inactive are those of the source. No cut-off for these calls is given here.

One may read the IC50 as the midpoint of a concentration-inhibition curve.

In assay [1] the target is T1, Mucosa-associated lymphoid tissue lymphoma translocation protein 1 (Homo sapiens, UniProt Q9UDY8).
T1 sequence (Q9UDY8 whole entry): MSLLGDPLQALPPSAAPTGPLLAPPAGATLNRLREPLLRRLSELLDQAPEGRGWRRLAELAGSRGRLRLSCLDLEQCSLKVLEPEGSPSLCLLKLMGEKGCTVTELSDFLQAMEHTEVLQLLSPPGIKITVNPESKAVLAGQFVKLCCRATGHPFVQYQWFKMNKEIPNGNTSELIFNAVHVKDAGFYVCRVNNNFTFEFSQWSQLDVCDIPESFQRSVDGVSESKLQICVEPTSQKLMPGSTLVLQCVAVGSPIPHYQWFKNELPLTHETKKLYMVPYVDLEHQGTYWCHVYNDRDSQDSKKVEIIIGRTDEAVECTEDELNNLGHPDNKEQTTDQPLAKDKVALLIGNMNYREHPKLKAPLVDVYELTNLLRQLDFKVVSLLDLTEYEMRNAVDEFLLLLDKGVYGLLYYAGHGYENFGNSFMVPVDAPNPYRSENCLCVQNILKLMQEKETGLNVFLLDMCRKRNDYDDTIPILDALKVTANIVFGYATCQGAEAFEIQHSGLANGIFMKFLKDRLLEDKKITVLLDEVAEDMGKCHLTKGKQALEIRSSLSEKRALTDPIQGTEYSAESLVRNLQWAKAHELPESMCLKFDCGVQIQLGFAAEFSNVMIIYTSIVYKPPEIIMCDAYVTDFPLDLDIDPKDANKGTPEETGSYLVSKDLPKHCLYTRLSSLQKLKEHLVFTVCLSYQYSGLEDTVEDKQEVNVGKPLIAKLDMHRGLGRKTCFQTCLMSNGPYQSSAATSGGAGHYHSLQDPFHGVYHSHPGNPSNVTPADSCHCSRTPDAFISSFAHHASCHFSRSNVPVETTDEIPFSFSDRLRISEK
The assay can be described thus: (§1) Inhibition of recombinant Malt1 (unknown origin) at 10 to 1000 uM preincubated for 1 hr followed by (S)-1-((6-(4-(4-(5,5-Difluoro-3,7-bis(4-methoxyphenyl)-5H-4l4,5l4-dipyrrolo[1,2-c:20,10-f][1,3,2]diazaborinin-10-yl)butyl)-1H-1,2,3-triazol-1-yl)hexanoyl)-L-valyl-L-arginyl)-N-((S)-1-fluoro-6-guanidino-2-oxohexan-3-yl)pyrrolidine-2-carboxamide addition and incubated for 1 hr by SDS-PAGE based competitive activity-based protein profiling assay.

Assay [2] concerns the target T2, Mucosa-associated lymphoid tissue lymphoma translocation protein 1 (Homo sapiens) (UniProt Q9UDY8).
T2 sequence (whole entry): T1 sequence (Q9UDY8 whole entry)
Described as §1.

Assay [3] addresses T1, Mucosa-associated lymphoid tissue lymphoma translocation protein 1. The assay can be described thus: (§2) Inhibition of recombinant Malt1 (unknown origin) at 1 to 100 uM preincubated for 1 hr followed by (S)-1-((6-(4-(4-(5,5-Difluoro-3,7-bis(4-methoxyphenyl)-5H-4l4,5l4-dipyrrolo[1,2-c:20,10-f][1,3,2]diazaborinin-10-yl)butyl)-1H-1,2,3-triazol-1-yl)hexanoyl)-L-valyl-L-arginyl)-N-((S)-1-fluoro-6-guanidino-2-oxohexan-3-yl)pyrrolidine-2-carboxamide addition and incubated for 1 hr by SDS-PAGE based competitive activity-based protein profiling assay.

Assay [4] has as its target T2, Mucosa-associated lymphoid tissue lymphoma translocation protein 1 (Homo sapiens). The assay is described as §2.
Another assay relates to Jurkat. Briefly: Binding affinity to Malt1 C/A mutant (unknown origin) overexpressed in human Jurkat T cells assessed as protein labeling at 1 uM after 50 mins by Western blot analysis. It is filed as cell-based.
Assay [5] has as its target T2, Mucosa-associated lymphoid tissue lymphoma translocation protein 1 (Homo sapiens). Briefly: Binding affinity to Flag-tagged Malt1 (unknown origin) overexpressed in human Jurkat T cells assessed as protein labeling at 1 uM after 50 mins by Western blot analysis. It counts as cell-based. On the technique in general: Immunoblotting shows a protein as a band on a membrane.

For assay [6] the target is unchanged. The assay can be described thus: Binding affinity to Malt1 in phorbol 12-myristate 13-acetate/ionomycin stimulated human Jurkat T cells assessed as protein labeling at 1 to 3 uM after 50 mins by SDS-PAGE based activity-based protein profiling assay. It is filed as cell-based.
Assay [7] shares this target. Briefly: Binding affinity to recombinant GST-Malt1 (325 to 760 residues) (unknown origin) assessed as protein labeling at 0.05 to 0.5 uM after 1 hr by SDS-PAGE based activity-based protein profiling assay.
For assay [8] the target is unchanged. The assay can be described thus: Binding affinity to recombinant GST-Malt1 (325 to 760 residues) (unknown origin) assessed as protein labeling at 1 uM after 1 hr by SDS-PAGE based activity-based protein profiling assay.
The target is the same in assay [9]. The assay can be described thus: Binding affinity to Malt1 in phorbol 12-myristate 13-acetate/ionomycin stimulated human Jurkat T cells assessed as protein labeling at 1 uM after 50 mins by SDS-PAGE based activity-based protein profiling assay. It is filed as cell-based.
Assay [10] shares this target. The assay can be described thus: Binding affinity to Malt1 in phorbol 12-myristate 13-acetate/ionomycin stimulated human Jurkat T cells assessed as protein labeling at 3 uM after 50 mins by SDS-PAGE based activity-based protein profiling assay. It is filed as cell-based.
For assay [11] the target is unchanged. Briefly: Binding affinity to recombinant GST-Malt1 (325 to 760 residues) (unknown origin) assessed as protein labeling at 0.1 to 1 uM after 1 hr by SDS-PAGE based activity-based protein profiling assay.

In the case of `COCCOc1nc(-c2ccc(C(F)(F)F)cc2)n(-c2ccc(NC(=O)CCl)cc2)n1`, the IC50 in assay [1] turned out to be 22 µM. Also, the pIC50(app) in assay [2] came to 4.66.

In the case of `COCCOc1nc(-c2ccc(Cl)c(Cl)c2)n(-c2ccc(NC(=O)CCl)cc2)n1`, the IC50 in assay [3] was found to be 7.8 µM. Further, the pIC50(app) in assay [4] came to 5.11.

As to `COCCOc1nc(-c2ccccc2)n(-c2ccc(NC(=O)CCl)cc2)n1`, the IC50 in assay [1] stood at 98 µM. Also, the pIC50(app) in assay [2] came out at 4.01.

With `COCCOc1nc(-c2ccc(OC)cc2)n(-c2ccc(NC(=O)CCl)cc2)n1`, in assay [1], the IC50 was 45 µM. Besides, the pIC50(app) in assay [2] stood at 4.35.

As to `COCCOc1nc(-c2cccc(Cl)c2)n(-c2ccc(NC(=O)CCl)cc2)n1`, the IC50 in assay [1] was 26 µM. Also, in assay [2], the pIC50(app) was 4.57.

`COCCOc1nc(-c2ccc(Cl)cc2)n(-c2ccc(NC(=O)CCl)cc2)n1`: the results for the IC50 in assay [1] and in assay [3] were 1.6 µM and 3 µM, respectively. The pIC50(app) in assay [2] is 5.81; in [4], 5.52.

Take `COCCOc1nc(-c2ccc(-c3ccccc3)cc2)n(-c2ccc(NC(=O)CCl)cc2)n1`: the concentration for half-maximal inhibition (IC50) in assay [1] was found to be 22 µM. Besides, in assay [2], the pIC50(app) turned out to be 4.66.

With `COCCOc1nc(-c2cccc(C)c2)n(-c2ccc(NC(=O)CCl)cc2)n1`, the IC50 in assay [1] is 278 µM. The pIC50(app) in assay [2] is 3.56.

Take `COCCOc1nc(-c2ccc(C)c(C)c2)n(-c2ccc(NC(=O)CCl)cc2)n1`: the IC50 in [1] is 15 µM. Besides, the pIC50(app) in [2] amounted to 4.82.

For the compound `COCCOc1nc(-c2ccc3c(c2)OCO3)n(-c2ccc(NC(=O)CCl)cc2)n1`, in assay [1], the IC50 is 88 µM. Further, the pIC50(app) in assay [2] was determined as 4.06.

Consider `COCCOc1nc(-c2cccc(OC)c2)n(-c2ccc(NC(=O)CCl)cc2)n1`, for which, in [1], the IC50 is 194 µM. Also, the pIC50(app) in [2] stood at 3.71.

With `CN1\C(=C/C=C/C=C/C2=[N+](CCCCCC(=O)NCCOc3nc(-c4ccc(Cl)c(Cl)c4)n(-c4ccc(NC(=O)CCl)cc4)n3)c3ccccc3C2(C)C)C(C)(C)c2ccccc21`, the outcome (with Jurkat; in assay [5]; in assay [8]) was Active. The outcome in assay [6] and in [7] was inactive.

As for `COCCOc1nc(-c2cccc(C(F)(F)F)c2)n(-c2ccc(NC(=O)CCl)cc2)n1`, the IC50 in assay [1] was 93 µM. Also, in [2], the pIC50(app) was 4.03.

`COCCOc1nc(-c2cccc(F)c2)n(-c2ccc(NC(=O)CCl)cc2)n1`: the half-maximal inhibitory concentration (IC50) in assay [1] was determined as 88 µM. The pIC50(app) in assay [2] amounted to 4.05.

`COc1ccc(C2=[N+]3C(=C(CCCCc4cn(CCCCCC(=O)N[C@H](C(=O)N[C@@H](CCCNC(=N)N)C(=O)N5CCC[C@H]5C(=O)N[C@@H](CCCNC(=N)N)C(=O)CF)C(C)C)nn4)c4ccc(-c5ccc(OC)cc5)n4[B-]3(F)F)C=C2)cc1`: the outcome (in [9]; in the assay on Jurkat) was inactive. Further, the result in assay [10], in assay [5] and in assay [11] was Active.

On to `COCCOc1nc(-c2ccc(OC)c(OC)c2)n(-c2ccc(NC(=O)CCl)cc2)n1`, for which the IC50 in assay [1] was 12 µM. Also, in [2], the pIC50(app) came to 4.92.

As to `COCCOc1nc(-c2ccc(F)c(F)c2)n(-c2ccc(NC(=O)CCl)cc2)n1`, the IC50 in [1] is 26 µM. Moreover, in [2], the pIC50(app) worked out at 4.59.

Turning to `COCCOc1nc(-c2ccc(Br)cc2)n(-c2ccc(NC(=O)CCl)cc2)n1`, the IC50 in assay [1] stood at 1.5 µM; in assay [3] it was 2.1 µM. Besides, the results for the pIC50(app) in assay [2] and in assay [4] were 5.82 and 5.68, respectively.

`C=CC(=O)Nc1ccc(-n2nc(OCCOC)nc2-c2ccc(Cl)c(Cl)c2)cc1`: in [1], the IC50 came out at 34 µM. The pIC50(app) in assay [2] worked out at 4.47.

Take `CC1=CC(C)=[N+]2C1=Cc1ccc(CCC(=O)N[C@@H](CC(C)C)C(=O)N[C@@H](CCCNC(=N)N)C(=O)N[C@@H](CO)C(=O)N[C@@H](CCCNC(=N)N)C(=O)COC(=O)c3c(C)cccc3C)n1[B-]2(F)F`: the outcome in assay [9], in assay [5] and in [8] was Active. The result in the assay with Jurkat was inactive.

For the compound `COCCOc1nc(-c2ccc(F)cc2)n(-c2ccc(NC(=O)CCl)cc2)n1`, the results for the IC50 in [1] and in assay [3] were 6.8 µM and 10 µM, respectively. Moreover, the pIC50(app) in assay [2] was determined as 5.17; in assay [4] it was 4.99.

In the case of `COCCOc1nc(-c2cccc(Br)c2)n(-c2ccc(NC(=O)CCl)cc2)n1`, in assay [1], the 50% inhibitory concentration (IC50) was 17 µM. Moreover, the pIC50(app) in assay [2] was 4.78.

In the case of `COCCOc1nc(-c2ccc(C)cc2)n(-c2ccc(NC(=O)CCl)cc2)n1`, the IC50 in [1] stood at 9 µM; in [3], 8.2 µM. For the same compound, the values for the pIC50(app) in assay [2] and in assay [4] were 5.05 and 5.09, respectively.
